This note sets out measurements from paper doi:10.1101/2024.12.09.627639v1 (biorxiv, 2024).

pEC50: −log10 of the molar value.

The target in this test is FFA1 (GPR40) (Homo sapiens, UniProt O14842). In words: aequorin calcium luminescence assay, CHO cells. Type of test: cell-based.
FFA1 (GPR40), sequence (O14842 whole entry): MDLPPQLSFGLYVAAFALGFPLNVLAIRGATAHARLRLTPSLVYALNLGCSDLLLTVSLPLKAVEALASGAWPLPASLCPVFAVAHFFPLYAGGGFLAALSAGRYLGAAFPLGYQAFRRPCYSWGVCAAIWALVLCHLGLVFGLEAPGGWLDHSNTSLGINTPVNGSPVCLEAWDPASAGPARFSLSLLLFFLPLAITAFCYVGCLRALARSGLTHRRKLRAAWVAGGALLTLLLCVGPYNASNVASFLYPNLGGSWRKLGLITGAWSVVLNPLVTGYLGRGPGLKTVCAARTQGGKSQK

Usually pEC50 stands for the negative decadic logarithm of the EC50, by convention in mol/L. For `CC/C=C\C/C=C\C/C=C\C/C=C\C/C=C\C/C=C\CCC(=O)O` [DHA], the pEC50 was 4.40.
